# Data: ChEMBL document CHEMBL1201862, “PubChem BioAssay data set” (2004)
#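 48-hour exposure; five concentrations; linearly interpolated endpoints. Here, GI50 denotes the concentration required for 50% inhibition of growth.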 Activity calls are given as the source filed them. Cut-off read from the data, not from the text of the source: active = GI50 up to about 1.1 µM and inactive = higher.
# What was measured:
# Assay in all cases: inhibition of tumour cell growth, NCI panel, 48 h
# 786-0 = tested on: 786-0
# A498 = tested on: A498
# A549 = tested on: A549
# ACHN = tested on: ACHN
# BT-549 = tested on: BT-549
# COLO 205 = tested on: COLO 205
# DU-145 = tested on: DU-145
# EKVX = tested on: EKVX
# HCC 2998 = tested on: HCC 2998
# HCT-116 = tested on: HCT-116
# HCT-15 = tested on: HCT-15
# HL-60 = tested on: HL-60
# HOP-62 = tested on: HOP-62
# HOP-92 = tested on: HOP-92
# HT-29 = tested on: HT-29
# Hs-578T = tested on: Hs-578T
# K562 = tested on: K562
# LOX IMVI = tested on: LOX IMVI
# M14 = tested on: M14
# MCF7 = tested on: MCF7
# MDA-MB-231 = tested on: MDA-MB-231
# MDA-MB-435 = tested on: MDA-MB-435
# MOLT-4 = tested on: MOLT-4
# NCI-H226 = tested on: NCI-H226
# NCI-H23 = tested on: NCI-H23
# NCI-H460 = tested on: NCI-H460
# NCI-H522 = tested on: NCI-H522
# NCI/ADR-RES = tested on: NCI/ADR-RES
# OVCAR-4 = tested on: OVCAR-4
# OVCAR-5 = tested on: OVCAR-5
# OVCAR-8 = tested on: OVCAR-8
# PC-3 = tested on: PC-3
# RXF 393 = tested on: RXF 393
# SF-268 = tested on: SF-268
# SF-539 = tested on: SF-539
# SK-MEL-28 = tested on: SK-MEL-28
# SK-MEL-2 = tested on: SK-MEL-2
# SK-MEL-5 = tested on: SK-MEL-5
# SK-OV-3 = tested on: SK-OV-3
# SN12C = tested on: SN12C
# SNB-19 = tested on: SNB-19
# SNB-75 = tested on: SNB-75
# SW-620 = tested on: SW-620
# T47D = tested on: T47D
# U-251 = tested on: U-251
# UACC-257 = tested on: UACC-257
# UACC-62 = tested on: UACC-62
# UO-31 = tested on: UO-31
# CAKI-1 = tested on: CAKI-1
# CCRF-CEM = tested on: CCRF-CEM
# IGROV-1 = tested on: IGROV-1
# KM12 = tested on: KM12
# Malme-3M = tested on: Malme-3M
# OVCAR-3 = tested on: OVCAR-3
# RPMI-8226 = tested on: RPMI-8226
# SF-295 = tested on: SF-295
# TK-10 = tested on: TK-10
# MDA-N = tested on: MDA-N
# SR = tested on: SR
structure (smiles),measurement,setting,value
O=C1C(Sc2ccc3ccccc3c2)=C(Sc2ccc3ccccc3c2)C(=O)c2ccccc21,GI50,786-0,12.7 µM (inactive)
same,GI50,A498,14.8 µM (inactive)
same,GI50,A549,4.72 µM (inactive)
same,GI50,ACHN,4.55 µM (inactive)
same,GI50,BT-549,12 µM (inactive)
same,GI50,COLO 205,3.95 µM (inactive)
same,GI50,DU-145,22 µM (inactive)
same,GI50,EKVX,10.5 µM (inactive)
same,GI50,HCC 2998,5.38 µM (inactive)
same,GI50,HCT-116,7.59 µM (inactive)
same,GI50,HCT-15,9.06 µM
same,GI50,HL-60,1.1 µM (active)
same,GI50,HOP-62,13.1 µM (inactive)
same,GI50,HOP-92,6.64 µM (inactive)
same,GI50,HT-29,15.6 µM (inactive)
same,GI50,Hs-578T,8.57 µM (inactive)
same,GI50,K562,3.47 µM (inactive)
same,GI50,LOX IMVI,11.4 µM (inactive)
same,GI50,M14,11.5 µM (inactive)
same,GI50,MCF7,11.2 µM (inactive)
same,GI50,MDA-MB-231,4.59 µM (inactive)
same,GI50,MDA-MB-435,17.7 µM (inactive)
same,GI50,MOLT-4,2.32 µM (inactive)
same,GI50,NCI-H226,13.9 µM (inactive)
same,GI50,NCI-H23,5.13 µM (inactive)
same,GI50,NCI-H460,7.82 µM (inactive)
same,GI50,NCI-H522,1.97 µM (inactive)
same,GI50,NCI/ADR-RES,13.2 µM (inactive)
same,GI50,OVCAR-4,3.47 µM (inactive)
same,GI50,OVCAR-5,11.3 µM (inactive)
same,GI50,OVCAR-8,10.5 µM (inactive)
same,GI50,PC-3,14.4 µM (inactive)
same,GI50,RXF 393,14.8 µM (inactive)
same,GI50,SF-268,11 µM (inactive)
same,GI50,SF-539,10.2 µM (inactive)
same,GI50,SK-MEL-28,15.2 µM (inactive)
same,GI50,SK-MEL-2,5.53 µM (inactive)
same,GI50,SK-MEL-5,2.81 µM (inactive)
same,GI50,SK-OV-3,22.7 µM (inactive)
same,GI50,SN12C,12.1 µM (inactive)
same,GI50,SNB-19,8.09 µM (inactive)
same,GI50,SNB-75,14 µM (inactive)
same,GI50,SW-620,4.8 µM (inactive)
same,GI50,T47D,1.76 µM (inactive)
same,GI50,U-251,6.21 µM (inactive)
same,GI50,UACC-257,3.57 µM (inactive)
same,GI50,UACC-62,3.24 µM (inactive)
same,GI50,UO-31,3.95 µM (inactive)
O=C(CCc1ccccc1)ON1C(=S)C(c2ccccc2)(c2ccccc2)N=C1Sc1ccccc1,GI50,786-0,26.5 µM (inactive)
same,GI50,A498,> 100 µM (inactive)
same,GI50,A549,38.1 µM (inactive)
same,GI50,ACHN,48.1 µM (inactive)
same,GI50,BT-549,54 µM (inactive)
same,GI50,CAKI-1,74.1 µM (inactive)
same,GI50,CCRF-CEM,20.3 µM (inactive)
same,GI50,COLO 205,35.5 µM (inactive)
same,GI50,DU-145,58.2 µM (inactive)
same,GI50,EKVX,26.6 µM (inactive)
same,GI50,HCC 2998,46.6 µM (inactive)
same,GI50,HCT-116,19.3 µM (inactive)
same,GI50,HCT-15,24.9 µM
same,GI50,HL-60,31.6 µM (inactive)
same,GI50,HOP-62,41.8 µM (inactive)
same,GI50,HOP-92,> 100 µM (inactive)
same,GI50,HT-29,24.5 µM (inactive)
same,GI50,Hs-578T,38.7 µM (inactive)
same,GI50,IGROV-1,6.53 µM (inactive)
same,GI50,K562,36.1 µM (inactive)
same,GI50,KM12,32.6 µM (inactive)
same,GI50,LOX IMVI,5.52 µM (inactive)
same,GI50,M14,82.6 µM (inactive)
same,GI50,MCF7,33.7 µM (inactive)
same,GI50,MDA-MB-231,> 100 µM (inactive)
same,GI50,MOLT-4,4 µM (inactive)
same,GI50,Malme-3M,48.1 µM (inactive)
same,GI50,NCI-H226,45.3 µM (inactive)
same,GI50,NCI-H23,34.4 µM (inactive)
same,GI50,NCI-H460,12.4 µM (inactive)
same,GI50,NCI/ADR-RES,33.7 µM (inactive)
same,GI50,OVCAR-3,60 µM (inactive)
same,GI50,OVCAR-4,58.1 µM (inactive)
same,GI50,OVCAR-5,> 100 µM (inactive)
same,GI50,OVCAR-8,38.7 µM (inactive)
same,GI50,PC-3,34.3 µM (inactive)
same,GI50,RPMI-8226,22 µM (inactive)
same,GI50,RXF 393,> 100 µM (inactive)
same,GI50,SF-268,22.7 µM (inactive)
same,GI50,SF-295,31 µM (inactive)
same,GI50,SF-539,44.6 µM (inactive)
same,GI50,SK-MEL-2,29.8 µM (inactive)
same,GI50,SK-MEL-5,37.5 µM (inactive)
same,GI50,SK-OV-3,45.1 µM (inactive)
same,GI50,SN12C,68.5 µM (inactive)
same,GI50,SNB-19,52.7 µM (inactive)
same,GI50,SNB-75,37.9 µM (inactive)
same,GI50,T47D,59.4 µM (inactive)
same,GI50,TK-10,89.9 µM (inactive)
same,GI50,UACC-257,> 100 µM (inactive)
same,GI50,UACC-62,55.1 µM (inactive)
same,GI50,UO-31,60.3 µM (inactive)
CCOC(=O)CCN1C(=O)c2ccc(NC(=O)C(=O)O)cc2S1(=O)=O,GI50,786-0,> 100 µM (inactive)
same,GI50,A498,> 100 µM (inactive)
same,GI50,A549,> 100 µM (inactive)
same,GI50,ACHN,> 100 µM (inactive)
same,GI50,BT-549,> 100 µM (inactive)
same,GI50,CAKI-1,> 100 µM (inactive)
same,GI50,CCRF-CEM,> 100 µM (inactive)
same,GI50,COLO 205,> 100 µM (inactive)
same,GI50,DU-145,> 100 µM (inactive)
same,GI50,EKVX,> 100 µM (inactive)
same,GI50,HCC 2998,> 100 µM (inactive)
same,GI50,HCT-116,> 100 µM (inactive)
same,GI50,HCT-15,> 100 µM
same,GI50,HL-60,> 100 µM (inactive)
same,GI50,HOP-62,> 100 µM (inactive)
same,GI50,HOP-92,> 100 µM (inactive)
same,GI50,HT-29,> 100 µM (inactive)
same,GI50,Hs-578T,> 100 µM (inactive)
same,GI50,IGROV-1,> 100 µM (inactive)
same,GI50,K562,> 100 µM (inactive)
same,GI50,KM12,> 100 µM (inactive)
same,GI50,LOX IMVI,> 100 µM (inactive)
same,GI50,M14,> 100 µM (inactive)
same,GI50,MCF7,> 100 µM (inactive)
same,GI50,MDA-MB-231,> 100 µM (inactive)
same,GI50,MDA-MB-435,> 100 µM (inactive)
same,GI50,MDA-N,> 100 µM (inactive)
same,GI50,MOLT-4,> 100 µM (inactive)
same,GI50,Malme-3M,> 100 µM (inactive)
same,GI50,NCI-H226,> 100 µM (inactive)
same,GI50,NCI-H23,> 100 µM (inactive)
same,GI50,NCI-H460,> 100 µM (inactive)
same,GI50,NCI-H522,> 100 µM (inactive)
same,GI50,NCI/ADR-RES,> 100 µM (inactive)
same,GI50,OVCAR-3,> 100 µM (inactive)
same,GI50,OVCAR-4,> 100 µM (inactive)
same,GI50,OVCAR-5,> 100 µM (inactive)
same,GI50,OVCAR-8,> 100 µM (inactive)
same,GI50,PC-3,> 100 µM (inactive)
same,GI50,RPMI-8226,> 100 µM (inactive)
same,GI50,SF-295,> 100 µM (inactive)
same,GI50,SF-539,> 100 µM (inactive)
same,GI50,SK-MEL-28,> 100 µM (inactive)
same,GI50,SK-MEL-2,> 100 µM (inactive)
same,GI50,SK-MEL-5,> 100 µM (inactive)
same,GI50,SK-OV-3,> 100 µM (inactive)
same,GI50,SN12C,> 100 µM (inactive)
same,GI50,SNB-19,> 100 µM (inactive)
same,GI50,SNB-75,> 100 µM (inactive)
same,GI50,SR,> 100 µM (inactive)
same,GI50,SW-620,> 100 µM (inactive)
same,GI50,TK-10,> 100 µM (inactive)
same,GI50,U-251,> 100 µM (inactive)
same,GI50,UACC-257,> 100 µM (inactive)
same,GI50,UACC-62,> 100 µM (inactive)
same,GI50,UO-31,> 100 µM (inactive)
